Measured values: US5214053A, “Thiourea derivatives and antimicrobial agent and antiulcer agent containing the same” (Terumo Kabushiki Kaisha, priority 1991, dated 1993)
In brackets after ≈: the same amount, converted by molar mass. Read-outs that look alike come from different tables or passages of the source.

How the values were obtained:
[1] = system: peptic ulcer induced by water immersion restrain stress; test: Inhibitory action against peptic ulcer induced by water immersion restrain stress; format: in vivo, SD male rats; details: Rattus norvegicus, read-out: Inhibitory action against stress peptic ulcer, percent inhibition of peptic ulcer formation
Method: Inhibitory Action Against Peptic Ulcer Induced By Water Immersion Restrain Stress
SD male rats (weighing 200-300 g) were fasted for 24 hours before oral administration of a thiourea derivative of the invention at a dose of 32 mg/kg bodyweight. One hour later, the animal was put in a stress cage and loaded with water immersion restraint stress in a water bath at 23° C.
Seven hours after loading with the stress, the rat was sacrificed with ether, and the stomach was excised and treated with formalin. Area (mm^2) of the lesions developed in the glandular stomach area was then measured. Results were expressed in sum of the lesions per animal which was referred to as peptic ulcer index.
Percent inhibition of the peptic ulcer formation (%) as shown in the table was calculated according to the following equation: [formula]

ethanol peptic ulcer = test: Inhibitory action against ethanol peptic ulcer; format: in vivo, SD male rats; details: Rattus norvegicus, read-out: Inhibitory action against ethanol peptic ulcer, percent inhibition of peptic ulcer formation
Method: Inhibitory Action Against Ethanol Peptic Ulcer
SD male rats (weighing 200-300 g) were fasted for 24 hours before oral administration of a thiourea derivative of the invention at a dose of 32 mg/kg bodyweight. One hour later, ethanol was orally given in a volume of 0.5 ml/100 g bodyweight. One hour after administering ethanol, the rat was sacrificed with ether, and the stomach was excised and treated with formalin. Area (mm^2) of the lesions developed in the glandular stomach area was then measured. Results were expressed in sum of the lesions per animal which was referred to as peptic ulcer index.
Percent inhibition of the peptic ulcer formation (%) as shown in the table was calculated according to the same equation as mentioned above.

Helicobacter pylori = test: Antimicrobial activity against Helicobacter pylori (MIC); format: cell-based, Helicobacter pylori strain NCTC 11916
Method: Antimicrobial Activity Against Helicobacter Pylori
Antimicorbial activity of the thiourea derivatives according to the invention against Helicobacter pylori (or Campylobacter pylori) was evaluated by employing strain NCTC 11916 as a Helicobacter test organism and determining MIC (minimum inhibitory concentration) of the thiourea derivative against Helicobacter pylori.
The Helicobacter pylori was pre-incubated in a plate medium for 3-5 days. […] These antibiotics were contained for inhibition of the growth of microorganisms with than Helicobacter pylori.
The Helicobacter pylori pre-incubated under slightly aerobic conditions (an O2 concentration of about 5%) at 37° C. for 3-5 days was suspended in a physiological saline solution in a concentration of approximately 10^8 organisms/ml. Approximately 10-20 μl of the suspension was inoculated on a medium for MIC measurement in cross streaks. […] The DMSO solution was formed by the twofold dilution method using sterilized distilled water. As in the pre-incubation, the Helicobacter pylori was cultured under slightly aerobic conditions at 37° C. for 3-5 days. After completion of the culture, growth of the microorganisms on the streaks was visually determined. […] The MIC of cemetidine, an antagonist to histamine was also measured for comparison.

[2] = SD male rats, oral, 32 mg/kg, 1 hour before stress, lesions measured 7 hours after loading with the stress
[3] = SD male rats, oral, 32 mg/kg, 1 hour before ethanol (0.5 ml/100 g), lesions measured 1 hour after ethanol
[4] = NCTC11916, strain NCTC 11916, Mueller-Hinton agar with horse hemolysis solution, 37° C., 3-5 days, slightly aerobic (O2 about 5%), read-out: Antimicrobial activity against Helicobacter pylori, MIC (minimum inhibitory concentration)

`O=C(CCCNC(=S)Nc1ccc2c(c1)OCO2)NCCCOc1cc(CN2CCCCC2)ccn1` [Example 7] showed an inhibition in vivo at 32 mg/kg [1, 2] of 78%, an inhibition in vivo at 32 mg/kg (ethanol peptic ulcer; [3]) of 63% and an MIC (Helicobacter pylori; [4]) of 6.25 µg/mL (≈ 12.2 µM).

Compound `O=C(CCCNC(=S)Nc1ccc2c(c1)OCO2)NCCCOc1cccc(CN2CCCC2)c1` [Example 3, 1-[3-[N-[3-[3-(pyrrolidinomethyl)phenoxy]propyl]carbamoyl]propyl]-3-[(3,4-methylenedioxy)phenyl]-thiourea] has an inhibition in vivo at 32 mg/kg [1, 2] of 68%, an inhibition in vivo at 32 mg/kg (ethanol peptic ulcer; [3]) of 61% and an MIC (Helicobacter pylori; [4]) of 6.25 µg/mL (≈ 12.5 µM).

`O=C(CCCNC(=S)Nc1ccc2c(c1)OCCO2)NCCCOc1cccc(CN2CCCCC2)c1` [Example 2, 1-[3-[N-[3-[3-(piperidinomethy)phenoxy]propyl]carbamoyl]propyl]-3-[(3,4-ethylenedioxy)phenyl]thiourea] was tested, and the inhibition in vivo at 32 mg/kg [1, 2] was 76%, the inhibition in vivo at 32 mg/kg (ethanol peptic ulcer; [3]) was 66% and the MIC (Helicobacter pylori; [4]) was 6.25 µg/mL (≈ 11.9 µM).

`CC1CCCN(Cc2cccc(OCCCNC(=O)CCCNC(=S)Nc3ccc4c(c3)OCO4)c2)C1` (stereo not drawn) [Example 4, 1-[3-[N-[3-[3((3-methylpiperidino)methyl)phenoxy]propyl]carbamoyl]propyl]-3-[(3,4-methylenedioxy)phenyl]thiourea] gave an inhibition in vivo at 32 mg/kg [1, 2] of 77%, an inhibition in vivo at 32 mg/kg (ethanol peptic ulcer; [3]) of 71% and an MIC (Helicobacter pylori; [4]) of 6.25 µg/mL (≈ 11.9 µM).

In the case of `CNC(=NC#N)NCCSCc1nc[nH]c1C` [Cemetidine, reference compound], the inhibition in vivo at 32 mg/kg ([1]; po, 7 h) is reported as 64%, the inhibition in vivo at 32 mg/kg (ethanol peptic ulcer; po, 1 h) is reported as 16% and the MIC (Helicobacter pylori; NCTC11916, read-out: Antimicrobial activity against Helicobacter pylori, MIC (minimum inhibitory concentration)) is reported as at least 400 µg/mL.

`O=C(CCCNC(=S)NCc1ccc2c(c1)OCO2)NCCCOc1cccc(CN2CCCCC2)c1` [Example 8] was tested, and the inhibition in vivo at 32 mg/kg [1, 2] was 82%, the inhibition in vivo at 32 mg/kg (ethanol peptic ulcer; [3]) was 78% and the MIC (Helicobacter pylori; [4]) was 6.25 µg/mL (≈ 11.9 µM).

With `CCN(CC)Cc1cccc(OCCCNC(=O)CCCNC(=S)Nc2ccc3c(c2)OCO3)c1` [Example 5, 1-[3-[N-[3-[3-(diethylaminomethyl)phenoxy]propyl]carbamoyl]propyl]-3-[(3,4-methylenedioxy)phenyl]thiourea] the inhibition in vivo at 32 mg/kg [1, 2] was 62%, the inhibition in vivo at 32 mg/kg (ethanol peptic ulcer; [3]) was 52% and the MIC (Helicobacter pylori; [4]) was 12.5 µg/mL (≈ 25 µM).

`O=C(CCCCCNC(=S)Nc1ccc2c(c1)OCO2)NCCCOc1cccc(CN2CCCCC2)c1` [Example 6] gave an inhibition in vivo at 32 mg/kg [1, 2] of 65%, an inhibition in vivo at 32 mg/kg (ethanol peptic ulcer; [3]) of 70% and an MIC (Helicobacter pylori; [4]) of 6.25 µg/mL (≈ 11.6 µM).

With `O=C(CCCNC(=S)Nc1ccc2c(c1)OCO2)NCCCOc1cccc(CN2CCCCC2)c1` [Example 1, 1-[3-[N-[3-[3(piperidinomethyl)phenoxy]propyl]carbamoyl]propyl]-3-[(3,4methylenedioxy)phenyl] thiourea] the inhibition in vivo at 32 mg/kg [1, 2] was 80%, the inhibition in vivo at 32 mg/kg (ethanol peptic ulcer; [3]) was 67% and the MIC (Helicobacter pylori; [4]) was 6.25 µg/mL (≈ 12.2 µM).
